# PubChem BioAssay AID1963437 (Molecular Pharmacology Branch, DTP, NCI, 2024)
# Test system: OVCAR-8 complex spheroid, growth inhibition
# Assay: Anticancer human tumor OVCAR-8 cell line growth inhibition [Asc];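 further: spheroids exposed to agents for 7 days before readout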;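 on viability, T/C: percent viability relative to DMSO vehicle wells taken as 100%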
# Conditions: for IC50: curve of first compound; for viability, T/C: stronger effect = lower value
# Summary of the method: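 Tumor cells were grown as multicellular spheroids with stromal HUVEC and mesenchymal stem cells and treated singly or in combination. Concentrations fell in half-log steps from the clinical Cmax, or from 10 microM where none was known.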
smiles,measurement,setting,value
Cc1nc(N2CCC3(CC2)COC(C)C3N)c(CO)nc1Sc1ccnc(N)c1Cl (centres undefined) + Cc1c(S(C)(=O)=O)c(-c2cc(F)cc(N3CCN(c4ccc(NS(=O)(=O)c5ccc(NC(CCN6CCC(C(=O)OCCCP(=O)(O)O)CC6)CSc6ccccc6)c(S(=O)(=O)C(F)(F)F)c5)cc4)CC3)c2)c(-c2ccc(Cl)cc2)n1C(C)C,IC50,second compound 0.0316 µM,> 3000 nM
same,IC50,second compound 0.1 µM,> 3000 nM
same,IC50,second compound 0.316 µM,> 3000 nM
same,IC50,second compound 1 µM,> 3000 nM
same,IC50,second compound 3.16 µM,> 3000 nM
same,IC50,second compound 10 µM,> 3000 nM
same,"viability, T/C","second compound 0.0316 µM, first compound 0.00949 µM",97%
same,"viability, T/C","second compound 0.0316 µM, first compound 0.03 µM",96.6%
same,"viability, T/C","second compound 0.0316 µM, first compound 0.0949 µM",159%
same,"viability, T/C","second compound 0.0316 µM, first compound 0.3 µM",188%
same,"viability, T/C","second compound 0.0316 µM, first compound 0.949 µM",226%
same,"viability, T/C","second compound 0.0316 µM, first compound 3 µM",206%
same,"viability, T/C","second compound 0.1 µM, first compound 0.00949 µM",91.3%
same,"viability, T/C","second compound 0.1 µM, first compound 0.03 µM",148%
same,"viability, T/C","second compound 0.1 µM, first compound 0.0949 µM",152%
same,"viability, T/C","second compound 0.1 µM, first compound 0.3 µM",190%
same,"viability, T/C","second compound 0.1 µM, first compound 0.949 µM",212%
same,"viability, T/C","second compound 0.1 µM, first compound 3 µM",202%
same,"viability, T/C","second compound 0.316 µM, first compound 0.00949 µM",97.4%
same,"viability, T/C","second compound 0.316 µM, first compound 0.03 µM",132%
same,"viability, T/C","second compound 0.316 µM, first compound 0.0949 µM",176%
same,"viability, T/C","second compound 0.316 µM, first compound 0.3 µM",200%
same,"viability, T/C","second compound 0.316 µM, first compound 0.949 µM",231%
same,"viability, T/C","second compound 0.316 µM, first compound 3 µM",175%
same,"viability, T/C","second compound 1 µM, first compound 0.00949 µM",92.6%
same,"viability, T/C","second compound 1 µM, first compound 0.03 µM",139%
same,"viability, T/C","second compound 1 µM, first compound 0.0949 µM",176%
same,"viability, T/C","second compound 1 µM, first compound 0.3 µM",210%
same,"viability, T/C","second compound 1 µM, first compound 0.949 µM",205%
same,"viability, T/C","second compound 1 µM, first compound 3 µM",169%
same,"viability, T/C","second compound 3.16 µM, first compound 0.00949 µM",102%
same,"viability, T/C","second compound 3.16 µM, first compound 0.03 µM",139%
same,"viability, T/C","second compound 3.16 µM, first compound 0.0949 µM",182%
same,"viability, T/C","second compound 3.16 µM, first compound 0.3 µM",221%
same,"viability, T/C","second compound 3.16 µM, first compound 0.949 µM",167%
same,"viability, T/C","second compound 3.16 µM, first compound 3 µM",144%
same,"viability, T/C","second compound 10 µM, first compound 0.00949 µM",110%
same,"viability, T/C","second compound 10 µM, first compound 0.03 µM",152%
same,"viability, T/C","second compound 10 µM, first compound 0.0949 µM",177%
same,"viability, T/C","second compound 10 µM, first compound 0.3 µM",206%
same,"viability, T/C","second compound 10 µM, first compound 0.949 µM",174%
same,"viability, T/C","second compound 10 µM, first compound 3 µM",121%
Cn1ncnc1[C@H]1c2n[nH]c(=O)c3cc(F)cc(c23)N[C@@H]1c1ccc(F)cc1 + CCN1C(C(=O)NC23CCC(C(=O)O)(CC2)CC3)C(c2cccc(Cl)c2F)C2(C(=O)Nc3cc(Cl)ccc32)C12CCCCC2,IC50,second compound 0.00949 µM,> 100 nM
same,IC50,second compound 0.03 µM,> 100 nM
same,IC50,second compound 0.0949 µM,> 100 nM
same,IC50,second compound 0.3 µM,> 100 nM
same,IC50,second compound 0.949 µM,> 100 nM
same,IC50,second compound 3 µM,> 100 nM
same,"viability, T/C","second compound 0.00949 µM, first compound 0.000316 µM",90.7%
same,"viability, T/C","second compound 0.00949 µM, first compound 0.001 µM",82.6%
same,"viability, T/C","second compound 0.00949 µM, first compound 0.00316 µM",105%
same,"viability, T/C","second compound 0.00949 µM, first compound 0.01 µM",111%
same,"viability, T/C","second compound 0.00949 µM, first compound 0.0316 µM",105%
same,"viability, T/C","second compound 0.00949 µM, first compound 0.1 µM",128%
same,"viability, T/C","second compound 0.03 µM, first compound 0.000316 µM",96%
same,"viability, T/C","second compound 0.03 µM, first compound 0.001 µM",94.3%
same,"viability, T/C","second compound 0.03 µM, first compound 0.00316 µM",104%
same,"viability, T/C","second compound 0.03 µM, first compound 0.01 µM",109%
same,"viability, T/C","second compound 0.03 µM, first compound 0.0316 µM",107%
same,"viability, T/C","second compound 0.03 µM, first compound 0.1 µM",126%
same,"viability, T/C","second compound 0.0949 µM, first compound 0.000316 µM",89.8%
same,"viability, T/C","second compound 0.0949 µM, first compound 0.001 µM",93.7%
same,"viability, T/C","second compound 0.0949 µM, first compound 0.00316 µM",110%
same,"viability, T/C","second compound 0.0949 µM, first compound 0.01 µM",95.5%
same,"viability, T/C","second compound 0.0949 µM, first compound 0.0316 µM",127%
same,"viability, T/C","second compound 0.0949 µM, first compound 0.1 µM",101%
same,"viability, T/C","second compound 0.3 µM, first compound 0.000316 µM",87.8%
same,"viability, T/C","second compound 0.3 µM, first compound 0.001 µM",110%
same,"viability, T/C","second compound 0.3 µM, first compound 0.00316 µM",97.7%
same,"viability, T/C","second compound 0.3 µM, first compound 0.01 µM",97%
same,"viability, T/C","second compound 0.3 µM, first compound 0.0316 µM",106%
same,"viability, T/C","second compound 0.3 µM, first compound 0.1 µM",123%
same,"viability, T/C","second compound 0.949 µM, first compound 0.000316 µM",111%
same,"viability, T/C","second compound 0.949 µM, first compound 0.001 µM",92%
same,"viability, T/C","second compound 0.949 µM, first compound 0.00316 µM",95.3%
same,"viability, T/C","second compound 0.949 µM, first compound 0.01 µM",97.1%
same,"viability, T/C","second compound 0.949 µM, first compound 0.0316 µM",109%
same,"viability, T/C","second compound 0.949 µM, first compound 0.1 µM",126%
same,"viability, T/C","second compound 3 µM, first compound 0.000316 µM",98.6%
same,"viability, T/C","second compound 3 µM, first compound 0.001 µM",94.3%
same,"viability, T/C","second compound 3 µM, first compound 0.00316 µM",104%
same,"viability, T/C","second compound 3 µM, first compound 0.01 µM",117%
same,"viability, T/C","second compound 3 µM, first compound 0.0316 µM",115%
same,"viability, T/C","second compound 3 µM, first compound 0.1 µM",139%
